Reference: patent publication US10335398B2 (MAXINASE LIFE SCIENCES LIMITED, priority 2015, dated 2019)
Each block holds one compound with its values, some of them ahead of it.

Tests used:
[1] = in vivo; settings: both, beagle, dog, plasma, 1 mg
Description: (§1) Eight Beagle dogs (4 male and 4 female) participated in the study. The study was preceded in five cross-over periods, separated by 3-day washout period. For oral administration, dogs were fasted about 16 hours prior to the dosing but had free access to water. […] Each oral dosing was administered with 20-30 mL of water. […] Blood samples were collected at pre-dose (0 min) and at 5, 10, 15, 30, 45 minutes; and at 1, 2, 3, 4, 6, 8, 12, 24 hours post-dose. After the plasma-separation process, the samples were analyzed by a validated LC-MS/MS method.

[2] = Pharmacokinetic study on Bioadhesive Composition in Beagle dogs; settings: for half-life: t1/2, Beagle dogs;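 on all read-outs here: eight Beagle dogs (4 male, 4 female), five-period crossover with 3-day washouts, plasma levels quantified by validated LC-MS/MS, oral dosing after roughly 16 h fast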
Description: as §1

[3] = Beagle dogs, analyte 7-OH Granisetron, IV Kytril® IV Infusion 1 mg
[4] = Beagle dogs, analyte 7-OH Granisetron, nasal GNS-B01 0.5 mg
[5] = Beagle dogs, analyte 7-OH Granisetron, nasal GNS-B01 1.0 mg
[6] = Beagle dogs, analyte 7-OH Granisetron, nasal GNS-B01 2 mg
[7] = Beagle dogs, analyte 7-OH Granisetron, oral Kytril® tablet 1 mg

AUC(0-t) ([1]; iv): 0.0284 µg·h/mL
MRT ([1]; iv): 1.24 h
half-life ([1]; iv): 1.1 ± 0.178 h
MRT ([1]; po): 1.5 h
Vd/F ([1]; po): 531 ± 234 L
half-life ([1]; po): ~1 h
CL/F ([2]; Beagle dogs, analyte Granisetron, nasal GNS-B01 0.5 mg/dog): 4.20 ± 4.35 L/min
CL/F ([2]; Beagle dogs, analyte Granisetron, nasal GNS-B01 1.0 mg/dog): 4.26 ± 3.69 L/min
CL/F ([2]; Beagle dogs, analyte Granisetron, nasal GNS-B01 2 mg/dog): 2.80 ± 2.18 L/min
Tmax ([2]; both, beagle, dog, plasma, inhaled or intranasal, 0.5 mg, Tmax, Beagle dogs, analyte Granisetron, nasal GNS-B01 0.5 mg/dog): 0.448 h
half-life ([2]; both, beagle, dog, plasma, inhaled or intranasal, 0.5 mg, analyte Granisetron, nasal GNS-B01 0.5 mg/dog): 0.997 ± 0.245 h
Tmax ([2]; both, beagle, dog, plasma, inhaled or intranasal, 1 mg, Tmax (range), Beagle dogs, intranasal administration 1.0 mg/dog): 0.25 to 0.75 h
Tmax ([2]; both, beagle, dog, plasma, inhaled or intranasal, 1 mg, Tmax, Beagle dogs, analyte Granisetron, nasal GNS-B01 1.0 mg/dog): 0.438 h
half-life ([2]; both, beagle, dog, plasma, inhaled or intranasal, 1 mg, analyte Granisetron, nasal GNS-B01 1.0 mg/dog): ~1 h
Tmax ([2]; both, beagle, dog, plasma, inhaled or intranasal, 2 mg, Tmax, Beagle dogs, analyte Granisetron, nasal GNS-B01 2 mg/dog): 0.397 h
half-life ([2]; both, beagle, dog, plasma, inhaled or intranasal, 2 mg, analyte Granisetron, nasal GNS-B01 2 mg/dog): 1.3 ± 0.352 h
Tmax ([2]; both, beagle, dog, plasma, po, 1 mg, Tmax (range), Beagle dogs, oral administration 1.0 mg/dog): 0.5 to 1 h
SMILES: CN1[C@@H]2CCC[C@H]1C[C@@H](NC(=O)c1nn(C)c3ccccc13)C2 [Granisetron, 1-methyl-N-((1R,3r,5S)-9-methyl-9-azabicyclo[3.3.1]nonan-3-yl)-1H-indazole-3-carboxamide, reference compound]

amount of 7-OH Granisetron in plasma after oral dosing compared to intranasal administration ([2]; Beagle dogs): about twice as much
AUC0-last [2, 3]: 1389 ± 465 ng·min/mL
AUC0-∞ [2, 3]: 1419 ± 470 ng·min/mL
CL/F [2, 3]: 0.77 ± 0.25 L/min
Cmax [2, 3]: 4.28 ± 1.20 ng/mL
MRT [2, 3]: 4.95 ± 0.317 h
Tmax [2, 3]: 0.813 ± 0.222 h
t1/2 [2, 3]: 4.6 ± 0.0033 h
AUC0-last [2, 4]: 364 ± 263 ng·min/mL
AUC0-∞ [2, 4]: 386 ± 264 ng·min/mL
CL/F [2, 4]: 2.98 ± 4.01 L/min
MRT [2, 4]: 3.92 ± 0.817 h
Tmax [2, 4]: 1 ± 0.423 h
t1/2 [2, 4]: 3.88 ± 1.2 h
AUC0-last [2, 5]: 664 ± 520 ng·min/mL
AUC0-∞ [2, 5]: 691 ± 520 ng·min/mL
CL/F [2, 5]: 2.70 ± 2.36 L/min
Cmax [2, 5]: 2.18 ± 1.54 ng/mL
MRT [2, 5]: 4.42 ± 0.8 h
Tmax [2, 5]: 1.06 ± 0.395 h
t1/2 [2, 5]: 4.37 ± 0.783 h
AUC0-last [2, 6]: 1549 ± 771 ng·min/mL
AUC0-∞ [2, 6]: 1609 ± 810 ng·min/mL
CL/F [2, 6]: 1.50 ± 0.61 L/min
Cmax [2, 6]: 4.56 ± 2.01 ng/mL
MRT [2, 6]: 5.42 ± 0.35 h
Tmax [2, 6]: 1.09 ± 0.597 h
t1/2 [2, 6]: 5.1 ± 0.55 h
AUC0-last [2, 7]: 1197 ± 446 ng·min/mL
AUC0-∞ [2, 7]: 1246 ± 473 ng·min/mL
CL/F [2, 7]: 0.90 ± 0.32 L/min
Cmax [2, 7]: 5.73 ± 2.17 ng/mL
MRT [2, 7]: 4.5 ± 0.683 h
Tmax [2, 7]: 0.625 ± 0.267 h
t1/2 [2, 7]: 4.58 ± 1.02 h
Cmax ([2]; Beagle dogs, analyte metabolite 7-OH Granisetron, nasal GNS-B01 0.5 mg granisetron): 1.26 ± 0.845 ng/mL
SMILES: CN1[C@@H]2CCC[C@H]1C[C@H](NC(=O)c1nn(C)c3c(O)cccc13)C2 [7-OH Granisetron]
